Read-outs that look alike come from different tables or passages of the source.
Biological target: human IRAK4 (Homo sapiens (Human), UniProt Q9NWZ3)
Experiment: IRAK4 kinase inhibition, Transcreener fluorescence polarization (ADP)
Assay type: biochemical
Experimental: Compounds were assayed for inhibition of human IRAK4 and IRAK1 catalytic activity using recombinant enzyme produced from insect cells. Full-length IRAK4 protein, carrying an N-terminal His6-Tag, was obtained from Life Technologies (Carlsbad, Calif., USA). The IRAK1 construct was produced internally and was comprised of IRAK1 residues Arg194 to Ser712, preceded by an NH2-terminal His6 tag and the coding sequence for glutathione-S-transferase.
Kinase activities were assayed using the Transcreener-Fluorecescence polarization platform (BelBrook Labs, Madison, Wis., USA) that measures amounts of the reaction product, ADP.

[1] = recombinant full-length His6-IRAK4 1.25 nM, 125 uM ATP, 125 uM peptide, 90 min, ATP Km 642 uM, read-out: IRAK4 Ki

Chain of human IRAK4 (Q9NWZ3 whole entry): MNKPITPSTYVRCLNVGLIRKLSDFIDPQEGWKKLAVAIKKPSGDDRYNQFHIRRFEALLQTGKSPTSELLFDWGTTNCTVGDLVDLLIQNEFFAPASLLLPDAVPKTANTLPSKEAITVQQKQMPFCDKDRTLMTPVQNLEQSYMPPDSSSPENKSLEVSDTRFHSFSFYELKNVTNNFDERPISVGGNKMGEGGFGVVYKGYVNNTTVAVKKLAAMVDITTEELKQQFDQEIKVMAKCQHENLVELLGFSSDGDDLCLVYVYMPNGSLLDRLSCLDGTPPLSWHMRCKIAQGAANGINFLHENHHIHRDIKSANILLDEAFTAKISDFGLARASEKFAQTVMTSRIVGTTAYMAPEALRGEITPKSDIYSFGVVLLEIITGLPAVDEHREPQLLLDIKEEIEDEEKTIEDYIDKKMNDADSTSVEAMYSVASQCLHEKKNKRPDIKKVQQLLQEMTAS

Row | SMILES | Ki | Ki [1]
1 | CC(C)(O)[C@H](F)CN1Cc2cc(NC(=O)c3cnn4cccnc34)c(O[C@@H]3CCNC3)cc2C1=O (single isomer, unassigned) [Example 63] | 5.3 nM | –
2 | COc1cc2c(cc1NC(=O)c1cnn3ccc(N4C[C@@H](N)CC(F)(F)C4)nc13)CC(C)(C)O2 [Example 36, (S)-5-(5-Amino-3,3-difluoropiperidin-1-yl)-N-(6-methoxy-2,2-dimethyl-2,3-dihydrobenzofuran-5-yl)pyrazolo[1,5-a]pyrimidine-3-carboxamide] | – | 14 nM
3 | CC1(C)Cc2cc(NC(=O)c3cnn4cccnc34)c(N3CCN(C4COC4)CC3)cc2O1 [Example 13, N-(2,2-Dimethyl-6-(4-(oxetan-3-yl)piperazin-1-yl)-2,3-dihydrobenzofuran-5-yl)pyrazolo[1,5-a]pyrimidine-3-carboxamide] | – | 8.1 nM
4 | CC1(C)Cc2cc(NC(=O)c3cnn4cccnc34)c(OC[C@@H]3Cc4ccccc4[C@H]3N)cc2O1 [Example 26, N-[6-[[(1S,2R)-1-Aminoindan-2-yl]methoxy]-2,2-dimethyl-3H-benzofuran-5-yl]pyrazolo[1,5-a]pyrimidine-3-carboxamide] | – | 280 nM
5 | CO[C@@H]1C[C@@H]2CN(c3cc4c(cc3NC(=O)c3cnn5cccnc35)CN(C[C@@H](F)C(C)(C)O)C4=O)CCN2C1 [Example 107, N-(2-((R)-2-Fluoro-3-hydroxy-3-methylbutyl)-6-((7R,8aR)-7-methoxyhexahydropyrrolo[1,2-a]pyrazin-2(1H)-yl)-1-oxoisoindolin-5-yl)pyrazolo[1,5-a]pyrimidine-3-carboxamide] | – | 6.5 nM
6 | COc1cc2c(cc1NC(=O)c1cnn3ccc(N(C)C)nc13)CC(C)(C)O2 [Example 44, 5-(Dimethylamino)-N-(6-methoxy-2,2-dimethyl-2,3-dihydrobenzofuran-5-yl)pyrazolo[1,5-a]pyrimidine-3-carboxamide] | – | 220 nM
7 | CCN1C[C@H](COc2cc3c(cc2NC(=O)c2cnn4cccnc24)CC(C)(C)O3)CC1=O [Example 22, (R)-N-(6-((1-Ethyl-5-oxopyrrolidin-3-yl)methoxy)-2,2-dimethyl-2,3-dihydrobenzofuran-5-yl)pyrazolo[1,5-a]pyrimidine-3-carboxamide] | – | 460 nM
8 | CC(C)(O)[C@H](F)CN1Cc2cc(NC(=O)c3cnn4cc(O)cnc34)c(N3CCOCC3)cc2C1=O [Example 133, (R)—N-(2-(2-Fluoro-3-hydroxy-3-methylbutyl)-6-morpholino-1-oxoisoindolin-5-yl)-6-hydroxypyrazolo[1,5-a]pyrimidine-3-carboxamide] | – | 5.7 nM
9 | CN(C)c1cc2c(cc1NC(=O)c1cnn3cccnc13)CC(C)(C)[C@H]2O [Example 156, N-[(1R)-6-(Dimethylamino)-1-hydroxy-2,2-dimethyl-indan-5-yl]pyrazolo[1,5-a]pyrimidine-3-carboxamide] | – | 16 nM
10 | CC1(C)Cc2cc(NC(=O)c3cnn4cccnc34)c(OC[C@H]3C[C@@H]4NCCO[C@H]4C3)cc2O1 [Example 30, N-(2,2-Dimethyl-6-(((4aS,6S,7aS)-octahydrocyclopenta[b][1,4]oxazin-6-yl)methoxy)-2,3-dihydrobenzofuran-5-yl)pyrazolo[1,5-a]pyrimidine-3-carboxamide] | – | 66 nM
11 | O=C1CCc2cc(NC(=O)c3cnn4cccnc34)c(N3CCOCC3)cc2N1 [Example 46, N-(7-Morpholino-2-oxo-1,2,3,4-tetrahydroquinolin-6-yl)pyrazolo[1,5-a]pyrimidine-3-carboxamide] | – | 42 nM
12 | CC[C@@H]1CC(=O)NN1C1CCN(c2cc3c(cc2NC(=O)c2cnn4cccnc24)CC(C)(C)O3)CC1 [Example 17, (R)-N-(6-(4-(5-Ethyl-3-oxopyrazolidin-1-yl)piperidin-1-yl)-2,2-dimethyl-2,3-dihydrobenzofuran-5-yl)pyrazolo[1,5-a]pyrimidine-3-carboxamide] | – | 8.4 nM
13 | COc1cc2c(cc1NC(=O)c1cnn3ccc(N4C[C@H](N)CC(F)(F)C4)nc13)CC(C)(C)O2 (single isomer, unassigned) [Example 37] | 7.7 nM | –
14 | CC1(C)Cc2cc(NC(=O)c3cnn4cccnc34)c(N3CCN(C[C@H]4CCCC(=O)N4)CC3)cc2O1 (single isomer, unassigned) [Example 7] | 10 nM | –
15 | CC1(C)Cc2cc(NC(=O)c3cnn4cccnc34)c(N3CCN(Cc4[nH]cnc4Cl)CC3)cc2O1 [Example 10, N-(6-(4-((4-Chloro-1H-imidazol-5-yl)methyl)piperazin-1-yl)-2,2-dimethyl-2,3-dihydrobenzofuran-5-yl)pyrazolo[1,5-a]pyrimidine-3-carboxamide] | – | 2.3 nM
16 | CC(C)(O)[C@H](F)CN1Cc2cc(NC(=O)c3cnn4cccnc34)c(N3CCN(C4COC4)CC3)cc2C1=O [Example 105, (R)-N-(2-(2-Fluoro-3-hydroxy-3-methylbutyl)-6-(4-(oxetan-3-yl)piperazin-1-yl)-1-oxoisoindolin-5-yl)pyrazolo[1,5-a]pyrimidine-3-carboxamide] | – | 3.4 nM
17 | CO[C@H]1C[C@@H]2CN(c3cc4c(cc3NC(=O)c3cnn5cccnc35)CN(C[C@@H](F)C(C)(C)O)C4=O)CCN2C1 [Example 108, N-(2-((R)-2-Fluoro-3-hydroxy-3-methylbutyl)-6-((7S,8aR)-7-methoxyhexahydropyrrolo[1,2-a]pyrazin-2(1H)-yl)-1-oxoisoindolin-5-yl)pyrazolo[1,5-a]pyrimidine-3-carboxamide] | – | 1.3 nM
18 | CC(C)(O)[C@H](F)CN1Cc2cc(NC(=O)c3cnn4cccnc34)c(OC(F)F)cc2C1=O [Example 88, (R)-N-(6-(Difluoromethoxy)-2-(2-fluoro-3-hydroxy-3-methylbutyl)-1-oxoisoindolin-5-yl)pyrazolo[1,5-a]pyrimidine-3-carboxamide] | – | 0.5 nM
19 | CC(C)(O)[C@H](F)CN1Cc2cc(NC(=O)c3cnn4cccnc34)c(O[C@H]3CCOC3)cc2C1=O (single isomer, unassigned) [Example 84] | 0.49 nM | –
20 | O=C(Nc1cc2c(cc1N1CCOCC1)N(CCCO)C(=O)CC2)c1cnn2cccnc12 [Example 48, N-(1-(3-Hydroxypropyl)-7-morpholino-2-oxo-1,2,3,4-tetrahydroquinolin-6-yl)pyrazolo[1,5-a]pyrimidine-3-carboxamide] | – | 240 nM
21 | CC(C)(O)[C@H](F)CN1Cc2cc(NC(=O)c3cnn4cccnc34)c(C#N)cc2C1=O [Example 98, (R)—N-(6-Cyano-2-(2-fluoro-3-hydroxy-3-methylbutyl)-1-oxoisoindolin-5-yl)pyrazolo[1,5-a]pyrimidine-3-carboxamide] | – | 8.5 nM
22 | CC(C)N1Cc2cc(NC(=O)c3cnn4cccnc34)c(N(C)C)cc2C1=O [Example 95, N-[6-(Dimethylamino)-2-isopropyl-1-oxo-isoindolin-5-yl]pyrazolo[1,5-a]pyrimidine-3-carboxamide] | – | 1.9 nM
23 | CC(C)Oc1cc2c(cc1NC(=O)c1cnn3cccnc13)CN([C@H]1CCOC1)C2=O [Example 68, (S)-N-(6-Isopropoxy-1-oxo-2-(tetrahydrofuran-3-yl)isoindolin-5-yl)pyrazolo[1,5-a]pyrimidine-3-carboxamide] | – | 2.5 nM
24 | CC(C)(O)[C@H](F)CN1Cc2cc(NC(=O)c3cnn4cccnc34)c(OCC(F)(F)F)cc2C1=O [Example 135, (R)—N-(2-(2-Fluoro-3-hydroxy-3-methylbutyl)-1-oxo-6-(2,2,2-trifluoroethoxy)isoindolin-5-yl)pyrazolo[1,5-a]pyrimidine-3-carboxamide] | – | 0.63 nM

Reference: patent publication US11034698B2, “Pyrazolo[ 1,5a]pyrimidine derivatives as IRAK4 modulators” (priority 2017, dated 2021)
